The source of these data is patent US20230358677A1, “Reversible Excited-State Photoacids and Photobases as Dynamic Fluorescence Sensors of Protonic Species” (California Institute of Technology, priority 2022, published 2023).

The conditions of series [1]: cited from earlier work; for pKa* pseudo: excited state, photoluminescence titration, Henderson-Hasselbalch analysis; for pKa: ground state.
Series [2] in a line: Ground-state and excited-state acidities of aromatic-amine-based photoacids (Table 1). As to conditions: pKa* pseudo minus pKa. The text has this:
Because the Henderson-Hasselbalch equation is derived for proton-transfer reactions at thermal and chemical equilibrium, it is agnostic to whether the ESPT acceptor species are H2O(l) or OH^−(aq), but it does require that the system has reached excited-state quasi-equilibrium.
Observed rate constants can be determined for excited-state proton transfer from weak photoacids to a series of proton-accepting quenchers.

Series [3] in a line: Acid-base titration of aqueous photoacid with absorption and steady-state photoluminescence detection (Henderson-Hasselbalch / Stern-Volmer fits, OH− as quencher). As to conditions: for predicted pK*a pseudo (Equation 5): from bimolecular rate constant and excited-state lifetime; for bimolecular rate constant k+q,ss,OH−: steady-state data, forward direction of Reaction 1 with B=OH−(aq). From the text:
FIGS. 2A through 2C illustrate acid-base titration of an aqueous solution of NS—NH2 photoacid with absorption and photoluminescence detection in accordance with an embodiment.
where aOH− is the activity of OH^−(aq), K*b pseudo is an erroneous observed equilibrium constant for base dissociation and KSV,OH− is the Stern-Volmer quenching constant, which is strictly dimensionless but reported here in units of M^−1 to be consistent with its typical usage. Unlike the Henderson-Hasselbalch equation, the Stern-Volmer equation is also applicable to non-equilibrium processes.
and KSV,OH−=k+q,OH−τo,PAH*, where τ is the excited-state lifetime (s) of NS—NH2* in the absence (τo,PAH*) or presence (τPAH*) of OH^− quencher and k+q,OH− is the bimolecular rate constant (M^−1 s^−1) for quenching of NS—NH2* by OH^− (forward direction of Reaction 1 with B=OH^−(aq)).
Several embodiments use the steady-state ultraviolet-visible electronic absorption and photoluminescence spectroscopy for characterization. Equal amounts of aromatic amine photoacids are portioned into five separate 100 mL volumetric flasks. For the non-proton-accepting quencher experiments, the five flasks are filled to the volumetric marker with aqueous solutions of 1 M HCl, 1 M KOH, 2 M KOH, 3 M KOH, and 4 M KOH. The aqueous 1 M KOH solution is titrated with the aqueous 1 M HCl solution to reach the desired pH values from 14 to 6, and the H^+ activities are measured using a pH meter (pH/Ion 510). […] Electronic absorption spectra and photoluminescence spectra are acquired using absorbance and fluorescence spectrometer(s), using a square-bottom quartz cuvette (1 cm path length) at room temperature. Electronic absorption spectra are baselined on a spectrum of deionized water and were corrected for scattering of light. Photoluminescence spectra are recorded by exciting with 310 nm light, slit widths for the excitation and emission monochromators were set to 5 nm, and the PMT detector voltage is set to 600 V. Photoluminescence spectra are corrected for changes in solution refractive index, inner filter effects and the wavelength-dependent correction factor of the fluorimeter. For experiments that use non-OH^− proton-accepting quenchers, equal amounts of the quencher are added to the dry volumetric flask intended to form the acidic and basic aqueous photoacid solutions, to prevent changes in total quencher concentration during the titration, and titrations are performed similarly to those in the absence of added proton-accepting quenchers. Although the total quencher concentration is kept constant throughout the titration, the activity of the deprotonated quencher species varied as a function of solution pH according to Equation 3. Ionic strength is matched at the most alkaline pH values; however, it is experimentally difficult to maintain the same ionic strength throughout the titration. Normalized photoluminescence intensities as a function of solution pH are obtained by dividing the corrected photoluminescence intensities at the wavelength of maximum photoluminescence to the maximum corrected photoluminescence intensity at the same wavelength.

A short description of series [4]: Stability of dye fluorescence near an operating gas diffusion electrode.

Entries after “also recorded” stand apart in the source; their conditions may differ. Where two headings read alike, the source gives them in different places. Where only a bound is given, the exact number is not on record here.

One may read the pKa as the negative logarithm of the acid dissociation constant. As to `Nc1ccc(Nc2ccc(N)cc2)cc1` [4,4′-diaminodiphenylamine], in series [1], the “pKa* pseudo” value is reported as 13.5 and the pKa was more than 14.2. In series [2], this compound returned a ΔpKa pseudo of less than −0.7.
`Nc1ccc2[nH]ccc2c1` [5-aminoindole]: in series [1], the “pKa* pseudo” value is on record as 14 and the pKa is 16.1. The ΔpKa pseudo in series [2] is listed as −2.1.
Consider `c1ccc2c(c1)[nH]c1ccccc12` [carbazole], for which the “pKa* pseudo” value in series [1] is 11.9. The ΔpKa pseudo in series [2] is −9.2.
On to `Nc1cc2ccccc2cc1C(=O)O` [2-amino-3-naphthoic acid], for which, in series [1], the “pKa* pseudo” value is 12.8 and the pKa is recorded as more than 16. The same compound returned a ΔpKa pseudo in series [2] of less than 3.2.
With `Nc1cnc2ccccc2c1` [3-aminoquinoline], the “pKa* pseudo” value in series [1] is on record as 12.1.
Consider `Nc1ccc2c(c1)C(=O)c1ccc(N)cc1C2=O` [2,6-diaminoanthraquinone], for which, in series [1], the “pKa* pseudo” value is 14.2 and the pKa is reported as more than 15.6. In addition, the ΔpKa pseudo in series [2] is less than −1.4.
Consider `Nc1ccccc1-c1ccccc1` [2-aminobiphenyl], for which, in series [1], the “pKa* pseudo” value is 12.1 and the pKa is more than 15.0. Further, the ΔpKa pseudo in series [2] is recorded as less than −2.9.
Consider `Nc1ccc(C(=O)O)cn1` [6-aminonicotinic acid], for which the “pKa* pseudo” value in series [1] was 14.2.
Consider `COc1cccc(N)c1` [m-anisidine], for which, in series [1], the “pKa* pseudo” value is 13.7 and the pKa is reported as more than 16.
For `NCCNc1cccc2c(S(=O)(=O)[O-])cccc12.[Na+]` [EDANS, 5-((2-aminoethyl)amino)naphthalene-1-sulfonic acid sodium salt], the pKa in series [3] (aqueous solution, pKa of the aliphatic primary amine, multi-quencher Stern-Volmer fit) worked out at 10.06 ± 0.02. The unimolecular rate constant entry in series [3] (excited-state deprotonation by the aliphatic primary amine) is recorded as “(0.95±0.01)×10^8 s^−1”. For the same compound, the “KSV,NH2” value in series [3] (excited-state deprotonation by the aliphatic primary amine (intramolecular)) was 1.20 ± 0.02 M⁻¹. In addition, in series [3], the “predicted pK*a pseudo (Equation 5)” value is given as 12.53±0.06 and the “bimolecular rate constant k+q,ss,OH−” value is “(23±1)×10^8 M^−1 s^−1”. Moreover, in series [3] (steady-state photoluminescence, non-linear Stern-Volmer fit, OH−(aq) quencher), the “KSV,ss,OH−” value was 30 ± 1 M⁻¹.
In the case of `Nc1ccc2c(c1)Cc1cc(N)ccc1-2` [2,7-diaminofluorene], in series [1], the “pKa* pseudo” value is recorded as 13.9 and the pKa is recorded as more than 16. This compound also registered a ΔpKa pseudo in series [2] of less than −2.1.
For the compound `Nc1ccc(Oc2ccc(N)cc2)cc1` [bis(4-aminophenyl)ether], the “pKa* pseudo” value in series [1] is listed as 11.2.
For `COc1n[nH]c2ccccc12` [3-methoxyindazole], in series [1], the “pKa* pseudo” value is 11.7 and the pKa was 14.0. In series [2], this compound returned a ΔpKa pseudo of −2.3.
In the case of `COC(=O)c1ccc(N)nc1` [methyl-6-aminonicotinate], the “pKa* pseudo” value in series [1] was 11.1.
Consider `O=S(=O)([O-])c1cccc2cccc(Nc3ccccc3)c12.[Na+]` [sodium 8-anilinonaphthalene-1-sulfonate, 8-anilinonaphthalene-1-sulfonic acid sodium salt], for which, in series [3], the “predicted pK*a pseudo (Equation 5)” value was 13.92±0.04 and the “bimolecular rate constant k+q,ss,OH−” value is listed as “(48±4)×10^8 M^−1 s^−1”. In addition, the “KSV,ss,OH− (linearized Stern-Volmer)” value in series [3] (steady-state photoluminescence, traditional linearized Stern-Volmer fit, OH−(aq) quencher) worked out at 1.2 ± 0.1 M⁻¹.
Consider 2-aminonaphthalene-6-sulfonate, for which the “pKa* pseudo” value in series [1] is 11.86.
Turning to `Nc1cc2c3ccccc3ccc2c2ccccc12` [6-aminochrysene], in series [1], the “pKa* pseudo” value was 12.6 and the pKa is reported as more than 14. Besides, in series [2], the ΔpKa pseudo is less than −1.4.
Consider `c1ccc(-c2cc(-c3ccccc3)[nH]n2)cc1` [3,5-diphenylpyrazole], for which, in series [1], the “pKa* pseudo” value is listed as 12.64 and the pKa is recorded as 12.94. This compound registered a ΔpKa pseudo in series [2] of −0.3.
Consider `Nc1cc2ccccc2cc1N` [2,3-diaminonaphthalene], for which, in series [1], the “pKa* pseudo” value was 12.9 and the pKa is more than 16. The ΔpKa pseudo in series [2] was less than −3.1.
As for `Nc1cccc(-c2ccccc2)c1` [3-aminobiphenyl], in series [1], the “pKa* pseudo” value is reported as 12.0 and the pKa is on record as more than 15.0. This compound displayed a ΔpKa pseudo in series [2] of less than −3.0.
In the case of `COc1ccc(N)cc1` [p-anisidine], in series [1], the “pKa* pseudo” value is listed as 13.3 and the pKa is listed as more than 16. In addition, the ΔpKa pseudo in series [2] is on record as less than −2.7.
For `O=C(O)c1cccc2[nH]ccc12` [indole-4-carboxylic acid], in series [1], the “pKa* pseudo” value was 12.2 and the pKa is 16.4. This compound had a ΔpKa pseudo in series [2] of −4.2.
Consider `Nc1cc(S(=O)(=O)[O-])c2ccc3c(S(=O)(=O)[O-])cc(S(=O)(=O)[O-])c4ccc1c2c43.[Na+].[Na+].[Na+]` [APTS, 8-aminopyrene-1,3,6-trisulfonic acid trisodium salt], for which, in series [3], the pKa was more than 14 and the “bimolecular rate constant k+q,ss,OH−” value was “(2.992±0.004)×10^9 M^−1 s^−1”. For the same compound, the “pK*a pseudo (Henderson-Hasselbalch fit)” value in series [3] (steady-state photoluminescence titration, global fit of two trials) is 12.83±0.01. In addition, in series [4] (10 mM stock solution exposed to −100 mA/cm^2 for 30 minutes), the “colour of stock solution after exposure” value is “from bright green to brown”. Besides, the “photoluminescence intensity during GDE operation” value in series [4] (high current densities (magnitudes >80 mA/cm^2), trisodium salt) was “degrades and slowly loses its fluorescence; also recorded: decrease in photoluminescence intensity”. Moreover, the “steady-state photoluminescence spectrum versus dissolved inorganic carbon” value in series [4] (increasing concentration of dissolved inorganic carbon) is recorded as “minimal change in intensity”. Moreover, in series [4] (stock solution exposed to −100 mA/cm^2 for 5 minutes), the “calibration curve after degradation versus fresh solutions” value was “nearly identical”. Besides, the “degradation, pH 7.1 versus pH 3 solution” value in series [4] (with and without light) is recorded as “degradation effect is more pronounced for the pH 3 solution”.
Take `CNc1ccccc1-c1nc2ccccc2n1C` [2-(2′-N-methyl-aminophenyl)-N-methylbenzimidazole]: the “pKa* pseudo” value in series [1] is 12.2.
In the case of `Nc1cc2ccccc2c2ccccc12` [9-phenanthrylamine], in series [1], the “pKa* pseudo” value was 12.18 and the pKa is reported as more than 14. The compound further registered a ΔpKa pseudo in series [2] of less than −1.82.
As for `O=C(O)c1c[nH]c2ccccc12` [indole-3-carboxylic acid], in series [1], the “pKa* pseudo” value is recorded as 13.1 and the pKa was 15.6. This compound came in with a ΔpKa pseudo in series [2] of −2.5.
For the compound `Nc1ccc2c(c1)Cc1ccccc1-2` [2-aminofluorene], the “pKa* pseudo” value in series [1] is reported as 13.0.
For the compound `Nc1ccc2ccccc2c1` [2-naphthylamine], in series [1], the “pKa* pseudo” value is on record as 11.75 and the pKa is given as 14.95. The compound further registered a ΔpKa pseudo in series [2] of −3.2.
Take `Nc1ccc(Nc2ccccc2)cc1` [4-aminodiphenylamine]: in series [1], the “pKa* pseudo” value was 11.2 and the pKa is listed as more than 16.0. The ΔpKa pseudo in series [2] is less than −4.8.
`O=C(O)c1cc2ccccc2[nH]1` [indole-2-carboxylic acid]: in series [1], the “pKa* pseudo” value is listed as 12.9 and the pKa was 17.1. Moreover, the ΔpKa pseudo in series [2] is listed as −4.2.
Regarding `Nc1ccc(-c2ccccc2)cc1` [4-aminobiphenyl], in series [1], the “pKa* pseudo” value is 14.25 and the pKa is reported as more than 15.5. This compound showed a ΔpKa pseudo in series [2] of less than −1.25.
As to `Nc1cccc2c1C(=O)c1cccc(N)c1C2=O` [1,5-diaminoanthraquinone], in series [1], the “pKa* pseudo” value is recorded as 12.3 and the pKa was more than 14. Besides, the ΔpKa pseudo in series [2] is given as less than −1.7.
Turning to `O=C(O)c1ccc2[nH]ccc2c1` [indole-5-carboxylic acid], in series [1], the “pKa* pseudo” value was 12.3 and the pKa was 16.9. This compound also had a ΔpKa pseudo in series [2] of −4.6.
